Laboratory results from ChEMBL document CHEMBL1201862, “PubChem BioAssay data set” (2004).
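48-hour exposure; five concentrations; linearly interpolated endpoints. At the GI50, growth is halved.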 Calls of active or inactive are those of the source. No stated cut-off is given here; in the data, active = GI50 up to about 1.1 µM and inactive = higher.

Columns and labels:
Experiment in all cases: inhibition of tumour cell growth, NCI panel, 48 h
[1] = tested on: U-251
[2] = tested on: SF-295
[3] = tested on: CCRF-CEM
[4] = tested on: NCI-H522
[5] = tested on: TK-10
[6] = tested on: OVCAR-8
[7] = tested on: SW-620
[8] = tested on: Malme-3M
[9] = tested on: SF-268
[10] = tested on: MDA-MB-231
[11] = tested on: CAKI-1
[12] = tested on: SK-MEL-2
[13] = tested on: HT-29
[14] = tested on: HOP-62
[15] = tested on: ACHN
[16] = tested on: SK-MEL-5
[17] = tested on: UACC-257
[18] = tested on: HCT-15
[19] = tested on: NCI/ADR-RES
[20] = tested on: HL-60

SMILES | GI50 [1] | GI50 [2] | GI50 [3] | GI50 [4] | GI50 [5] | GI50 [6] | GI50 [7] | GI50 [8] | GI50 [9] | GI50 [10] | GI50 [11] | GI50 [12] | GI50 [13] | GI50 [14] | GI50 [15] | GI50 [16] | GI50 [17] | GI50 [18] [µM] | GI50 [19] | GI50 [20]
COc1ccccc1CCN1CCN(CCCc2ccccc2)CC1 | > 100 µM (inactive) | 52.5 µM (inactive) | > 100 µM (inactive) | 32.4 µM (inactive) | 75.5 µM (inactive) | > 100 µM (inactive) | > 100 µM (inactive) | > 100 µM (inactive) | > 100 µM (inactive) | > 100 µM (inactive) | 91 µM (inactive) | > 100 µM (inactive) | 28.8 µM (inactive) | > 100 µM (inactive) | > 100 µM (inactive) | 22.1 µM (inactive) | 60.4 µM (inactive) | 42.6 | > 100 µM (inactive) | 65.9 µM (inactive)
Nc1cc2[nH]cnc2c(=O)[nH]1 [DEZAGUANINE] | 30.5 µM (inactive) | > 219 µM (inactive) | 7.93 µM (inactive) | 14.8 µM (inactive) | 13.9 µM (inactive) | 40.2 µM (inactive) | 17.7 µM (inactive) | 47.6 µM (inactive) | 15 µM (inactive) | 49.9 µM (inactive) | 11 µM (inactive) | 5.96 µM (inactive) | 21.5 µM (inactive) | 18.3 µM (inactive) | 8.87 µM (inactive) | 63.7 µM (inactive) | 109 µM (inactive) | 19.3 | 50.9 µM (inactive) | 6.21 µM (inactive)
